The results in this text go back to PMC9502754, “Novel Effective Fluorinated Benzothiophene-Indole Hybrid Antibacterials against S. aureus and MRSA Strains” (Pharmaceuticals, 2022).

One may read the IC50 as the midpoint of a concentration-inhibition curve. A higher IC50 goes with weaker potency.

The test deals with T1, MRSA pyruvate kinase (PK) (Staphylococcus aureus, UniProt Q2FG40).
T1 construct: gene pyk; His-tagged MRSA PK from S. aureus USA300 LAC *, pET-28a, expressed in E. coli
T1 sequence (Q2FG40 1-585): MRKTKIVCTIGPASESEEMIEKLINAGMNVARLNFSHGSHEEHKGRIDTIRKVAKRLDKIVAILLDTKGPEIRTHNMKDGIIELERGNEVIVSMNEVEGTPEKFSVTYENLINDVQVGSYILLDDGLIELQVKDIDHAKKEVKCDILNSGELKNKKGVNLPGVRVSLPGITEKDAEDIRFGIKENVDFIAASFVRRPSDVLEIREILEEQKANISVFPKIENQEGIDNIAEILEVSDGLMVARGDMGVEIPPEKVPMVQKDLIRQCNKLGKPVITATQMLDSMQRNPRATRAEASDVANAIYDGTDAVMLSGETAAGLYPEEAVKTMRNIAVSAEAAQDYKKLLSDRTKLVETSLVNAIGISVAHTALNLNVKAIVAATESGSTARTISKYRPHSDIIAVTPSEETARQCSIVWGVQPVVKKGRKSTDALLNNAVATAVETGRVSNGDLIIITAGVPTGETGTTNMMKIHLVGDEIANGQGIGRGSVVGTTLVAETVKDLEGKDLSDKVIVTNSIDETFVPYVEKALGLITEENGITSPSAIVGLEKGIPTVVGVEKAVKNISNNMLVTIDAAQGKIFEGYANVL
Nature of the test: Kinase-Glo luminescence assay of ATP formed by purified PK from PEP and ADP. The class given is biochemical. In general terms: Kinase-Glo reads ATP consumption through a luciferase reaction.
Compound `Oc1ccc2c(-c3c4cc(F)sc4cc4[nH]c5cc(O)ccc5c34)c[nH]c2c1` [3c, 2-Fluoro-4-(6-hydroxy-1H-indol-3-yl)-9H-thieno[2,3-b]carbazol-7-ol] had a 50% inhibitory concentration (IC50) of 1.6 µM.

Turning to `Fc1cc2c(-c3c[nH]c4ccc(Cl)cc34)c3c(cc2s1)[nH]c1ccc(Cl)cc13` [3f, 6-Chloro-4-(5-chloro-1H-indol-3-yl)-2-fluoro-9H-thieno[2,3-b]carbazole], it took 2.1 µM to reach half-maximal inhibition (IC50).

In the case of `Fc1cc2cc3[nH]c4cc(Cl)ccc4c3c(-c3c[nH]c4cc(Cl)ccc34)c2s1` [4f, 7-Chloro-10-(6-chloro-1H-indol-3-yl)-2-fluoro-5H-thieno[3,2-b]carbazole], the midpoint of inhibition, the IC50, lay at 2.3 µM.

In the case of `Fc1cc2c(-c3c[nH]c4ccc(Br)cc34)c3[nH]c4ccc(Br)cc4c3cc2s1` [6d, 8-Bromo-4-(5-bromo-1H-indol-3-yl)-2-fluoro-5H-thieno[3,2-b]carbazole], 3.5 µM corresponded to half-maximal inhibition (IC50).
